Test results as given in patent US9078894B2 (AB SCIENCE, priority 2011, dated 2015).
Where “and” joins values, the source holds several entries; their conditions need not be identical. Equal entries are not always repeated.

Experiments:
patients [1] = details: estimated exposure of about 57,300 patients, June 2003 through December 2006; cited from earlier work
patients [2] = details: 20 of 4127 patients; cited from earlier work
[3] = system: experimentally asthmatic cats; experiment: Experimental feline asthma, randomized blinded placebo-controlled study; type: in vivo, cat
Description: Twelve experimentally asthmatic cats were enrolled in a randomized, blinded, placebo-controlled study. […] Exclusion criteria were evidence of cardiac insufficiency, evidence of gastric bleeding, major surgery within 2 weeks of treatment initiation, life expectancy less than 3 months, lactating or pregnant cats or cats intended for breeding, previous history of kidney disease or previous known episodes of proteinuria, administration of food listed on the “recall list” issued by FDA or vaccination within 4 weeks prior to enrollment, and any concurrent medical illness. […] Bronchoalveolar lavage fluid (BALF) eosinophil percentages and airway hyper-reactivity, determined by changes in ventilator mechanics in response to methacholine (MCh) challenge were evaluated at baseline, weeks 4, 8 and 12. Results of the MCh challenge were reported as the effective concentration of MCh that increased baseline airway resistance by 200% (EC200Raw) and the end-inspiratory pressure after a breath hold (plateau pressure, Pplat). Treatment was interrupted or discontinued if predetermined adverse events were noted. Cats naïve to Bermuda grass allergen (BGA) confirmed by intradermal skin testing (IDST) and with normal BALF underwent allergen sensitization. IDST was re-evaluated to confirm allergen sensitization. Next, allergen challenge of BGA as an aerosol in awake, spontaneously breathing cats was performed. Allergen solution (100 μg of BGA dissolved in PBS) was aerosolized into a clear chamber using an air compressor attached to a nebulizer. Seven challenges were administered over the next 2 weeks, at which time BALF was repeated to confirm development of eosinophilic airway inflammation. Bronchoalveolar lavage fluid was collected in a blind fashion at baseline and weeks 4, 8, and 12 of the study. Collection of BALF was obtained after Mch challenge and under the same anesthesia. A total nucleated cell count was performed on each BALF sample using a coulter counter. Cytological evaluation and differential cell counts were performed on samples prepared by cytocentrifugation. Differential cell counts (200 nucleated cells per slide) on modified Wright's stained slides were performed, and cell percentages were reported.

[4] = system: asthmatic patients with severe persistent asthma; experiment: Phase 2a 16-week double-blind placebo-controlled study in severe persistent asthma; type: in vivo, human; set-up: Oral corticosteroids absolute change (W 4 to W 16), Mean ± SD / Oral corticosteroids absolute change (W 4 to W 16), Median: unit not given here
Description: The trial consisted of three phases: during the first 4 weeks, the corticosteroid dose remained constant; during the following 8 weeks, oral corticosteroid doses were decreased each week according to a predefined schedule, until weaning or an asthma exacerbation occurred; the final 4 weeks were a stabilization period for observation. Asthma exacerbation was defined as a deterioration of asthma symptoms requiring an emergency visit, a hospitalization or an increase in oral corticosteroid treatment. In case an asthma exacerbation occurred, oral corticosteroid therapy was resumed at the level prior to this occurrence following the acute treatment phase. Patients underwent a visit every 2 weeks during the first 4 weeks, then a weekly visit for the following 12 weeks. A possible treatment extension was part of the study protocol in case of clinical benefit, based on the investigators assessment. In these extension phases the follow-up of patients took place every 4 weeks during the first 3 months and then every 12 weeks until the end of the study. The primary objective was to measure the reduction of oral corticosteroids doses after 16 weeks of treatment. Therefore, efficacy and safety measurements were assessed at enrolment of each patient in the study prior to the administration of the investigational compound and then at week 2, and weekly from weeks 4 through to 16. The secondary objectives were to monitor the change from baseline in symptomatic scores (asthma control questionnaire, ACQ), the FEV1 and rescue medication intake when necessary. Patients, 18 to 75 years of age with a diagnosis of asthma for ≧3 years and severe uncontrolled disease for ≧1 year, and followed up at the same centre for ≧1 year, were eligible for this study. […] Exclusion criteria included: (a) any other significant respiratory or cardiac disease; (b) worsening of asthma symptoms requiring treatment with additional oral corticosteroids within 4 weeks of screening; (c) any other infections; (d) a history of acute infection requiring hospitalization or treatment with antibiotics within 2 weeks of screening; (e) rare variants of severe asthma such as Churg-Strauss syndrome or allergic bronchopulmonary aspergillosis; […] A treatment wash-out period of 4 months at time of enrolment was required for prior use of omalizumab.

[5] = system: Balb/c male mice sensitized with ovalbumine; experiment: Murine model of allergic airway inflammation (ovalbumine); type: in vivo, mouse; details: oral, twice daily, 25 and 100 mg/kg/day; sensitized and challenged animals
Experimental: Balb/c male mice aged 9 weeks were sensitized with ovalbumine (50 μg) adsorbed with Al(OH)3 diluted in physiological saline (0.9% NaCl) by intraperitoneal injection on day 1 and 7. Sensitization was followed by intranasal challenges with ovalbumine (10 μg) diluted in 0.9% NaCl every day from day 18 to day 21. Non sensitized control animals received intraperitoneal injections of vehicle alone followed by intranasal challenges with NaCl 0.9% alone at the same time than the sensitized animals. […] On day 22, airway hyper responsiveness (AHR) was measured by the enhanced pause (PenH) in the whole body plethysmograph. The bronchoconstrictive response was evaluated as the response to a concentration-dependent methacholine (MCh) aerosol exposure. Mice were first exposed to a saline aerosol then to an aerosol generated from increasing concentrations of methacholine (0.05, 0.1, 0.2, 0.3, and 0.4M). Infiltration of inflammatory cells was measured immediately after assessment of AHR to methacholine via collection of bronchoalveolar lavage (BAL) fluid by lavage of the whole lung with physiological saline containing 1.6 mM EDTA. Cells were counted in the BAL and cell types identified by morphological criteria after Hemacolor staining.

[6] = system: human cord blood mast cells; details: cited from earlier work
[7] = ITT population, 3.0 mg/kg/day (N = 12)
[8] = ITT population, 4.5 mg/kg/day (N = 11)
[9] = ITT population, 6.0 mg/kg/day (N = 10)
[10] = ITT population, all masitinib (N = 33)
[11] = subpopulation initially treated with >15 mg prednisone daily, 3.0 mg/kg/day (N = 9)
[12] = subpopulation initially treated with >15 mg prednisone daily, 4.5 mg/kg/day (N = 4)
[13] = subpopulation initially treated with >15 mg prednisone daily, 6.0 mg/kg/day (N = 6)
[14] = subpopulation initially treated with >15 mg prednisone daily, all masitinib (N = 19)

Question: For “omalizumab: an anti-immunoglobulin E antibody (anti-IgE) approved for severe allergic asthma”, which “frequency of anaphylaxis attributed to omalizumab use” value (patients [1]) is on record?
Answer: at least 0.2%

Question: And the “malignant neoplasms observed in omalizumab-treated patients” value (patients [2])?
Answer: 0.5%

Question: What does the source list for `Cc1ccc(NC(=O)c2ccc(CN3CCN(C)CC3)cc2)cc1Nc1nc(-c2cccnc2)cs1` [masitinib, 4-(4-methylpiperazin-1-ylmethyl)-N-[4-methyl-3-(4-pyridin-3ylthiazol-2-ylamino)phenyl]benzamide]?
Answer: proteinuria, cats affected ([3]; 50 mg/day, p=0.002 vs placebo): every cat; group mean±SD % BALF eosinophils ([3]; after 4 weeks of therapy, 50 mg orally once daily, p=0.023 vs placebo): 7±9%; Pplat with MCh challenge ([3]; after 4 weeks of therapy, no significant increase in masitinib-treated cats (p=0.32)): blunting of airflow limitation; group mean±SD EC200Raw, difference between groups ([3]; at baseline or after 4 weeks of therapy, MCh challenge): no significant difference; permanent discontinuation due to proteinuria ([3]; at or after week 4): four; temporary drug interruption followed by dose reduction due to proteinuria ([3]; at or after week 4): two; other side effects suspected of being associated with masitinib administration ([3]; infrequent overall, no specific therapy required): vomiting, diarrhea, Heinz bodies, hypoalbuminemia, hypoglobulinemia, hypercholesterolemia and ALT increase; masitinib-treated cats with % BALF eosinophils <17% ([3]; week 4): five of six; % BALF eosinophils, values of individual cats ([3]; week 4, the five masitinib-treated cats below 17%): 1% (2×) and 2% and 3.5% and 15%; change in Pplat with MCh challenge versus saline aerosol, compared between treatment groups ([3]; week 4 compared to baseline): significant (p=0.033) decrease; ACQ score change ([4]; 3.0 mg/kg dose): 0.56 units; ACQ score change ([4]; 4.5 mg/kg dose): 1.57 units; ACQ score change ([4]; 6 mg/kg dose): 0.89 units; improvement of ACQ score at W16 ([4]; ITT analysis, all masitinib-treated patients, p<0.001): 0.99 unit; Oral corticosteroids absolute change (W 4 to W 16), Mean ± SD [4, 7]: −10.7 ± 19.2; Oral corticosteroids absolute change (W 4 to W 16), Median [4, 7]: −14.0; Patients weaned at W 16, number (percent) [4, 7]: 5 (41.7%); Oral corticosteroids absolute change (W 4 to W 16), Mean ± SD [4, 8]: 0.2 ± 26.8; Oral corticosteroids absolute change (W 4 to W 16), Median [4, 8]: −7.5; Patients weaned at W 16, number (percent) [4, 8]: 2 (25.0%); Oral corticosteroids absolute change (W 4 to W 16), Mean ± SD [4, 9]: −12.2 ± 18.5; Oral corticosteroids absolute change (W 4 to W 16), Median [4, 9]: −11.3; Patients weaned at W 16, number (percent) [4, 9]: 3 (37.5%); Oral corticosteroids absolute change (W 4 to W 16), Mean ± SD [4, 10]: −8.0 ± 21.3; Oral corticosteroids absolute change (W 4 to W 16), Median [4, 10]: −12.3; Patients weaned at W 16, number (percent) [4, 10]: 10 (35.7%); masitinib-related AE: diarrhea ([4]; all masitinib-treated patients): 18.2%; masitinib-related AE: fatigue ([4]; all masitinib-treated patients): 12.1%; masitinib-related AE: nausea ([4]; all masitinib-treated patients): 30.3%; masitinib-related AE: peripheral edema ([4]; all masitinib-treated patients): 18.2%; masitinib-related AE: pruritus ([4]; all masitinib-treated patients): 12.1%; masitinib-related AE: skin rash ([4]; all masitinib-treated patients): 30.3%; masitinib-related AE: vomiting ([4]; all masitinib-treated patients): 12.1%; patients who experienced at least one AE ([4]; all patients treated with masitinib, regardless of dose): 93.9%; change in lung function ([4]; in this trial): no significant change in lung function; asthma exacerbation rate in patients experiencing at least one exacerbation, decrease ([4]; masitinib group, all doses merged): 42.4%; rate of asthma exacerbation compared to placebo ([4]; masitinib-treated patients): significantly reduced; percent reduction in oral corticosteroid doses ([4]; patients receiving >15 mg equivalent prednisone per day at baseline, all masitinib-treated patients): 52±53%; patients weaned off oral corticosteroids at W16, number ([4]; patients receiving >15 mg equivalent prednisone per day at baseline, masitinib treatment groups): six; Oral corticosteroids absolute change (W 4 to W 16), Mean ± SD [4, 11]: −17 ± 9; Oral corticosteroids absolute change (W 4 to W 16), Median [4, 11]: −20; Oral corticosteroids percent change (W 4 to W 16), Mean ± SD [4, 11]: −68 ± 38%; Oral corticosteroids percent change (W 4 to W 16), Median [4, 11]: −81%; Patients weaned at W 16, number (percent) [4, 11]: 4 (44.4%); Oral corticosteroids absolute change (W 4 to W 16), Mean ± SD [4, 12]: −7 ± 8; Oral corticosteroids absolute change (W 4 to W 16), Median [4, 12]: −5; Oral corticosteroids percent change (W 4 to W 16), Mean ± SD [4, 12]: −33 ± 42%; Oral corticosteroids percent change (W 4 to W 16), Median [4, 12]: −19%; Patients weaned at W 16, number (percent) [4, 12]: 0 (0.0%); Oral corticosteroids absolute change (W 4 to W 16), Mean ± SD [4, 13]: −14 ± 22; Oral corticosteroids absolute change (W 4 to W 16), Median [4, 13]: −16; Oral corticosteroids percent change (W 4 to W 16), Mean ± SD [4, 13]: −40 ± 78%; Oral corticosteroids percent change (W 4 to W 16), Median [4, 13]: −69%; Patients weaned at W 16, number (percent) [4, 13]: 2 (33.3%); Oral corticosteroids absolute change (W 4 to W 16), Mean ± SD [4, 14]: −14 ± 14; Oral corticosteroids absolute change (W 4 to W 16), Median [4, 14]: −15; Oral corticosteroids percent change (W 4 to W 16), Mean ± SD [4, 14]: −52 ± 53%; Oral corticosteroids percent change (W 4 to W 16), Median [4, 14]: −65%; Penh (airway hyper responsiveness) [5]: a decrease of Penh; number of eosinophils in the bronchoalveolar lavage fluid [5]: marked decrease; FcεRI-mediated degranulation [6]: inhibition of FcεRI-mediated degranulation
